IC50 data for 2 compounds are collected here from EP1582519A2, “Heteropolycyclic compounds and their use as metabotropic glutamate receptor antagonists” (NPS PHARMACEUTICALS, INC., priority 1999, dated 2001).

This test deals with native receptor, mGluR5d (Rattus norvegicus, UniProt P31424). The test is described as follows: Antagonist activity on the native receptor mGluR5d. It is filed as cell-based. The protocol: Primary astrocyte cultures were prepared from 3-5 day old Sprague-Dawley rat pups using a modification of Miller (Miller et al, J. Neuroscience, 15(9): 6103-6109, 1995). In brief, primary cultures were plated on poly-L lysine coated flasks in Dulbecco's modified Eagle's medium (DMEM) containing fetal calf serum (FCS). After 6 days, cell cultures were shaken over night at 280 rpm, then transferred to astrocyte-defined media (ADM) containing growth factors that up-regulate the expression of mGluR5 (Miller et al., 1995). […] For FLIPR analysis, cells were seeded on poly-D lysine coated clear bottom 96-well plates with black sides and analysis of [Ca^2+]i mobilization was performed 3 days following the growth factor up-regulation. Cell cultures in the 96-well plates were loaded with a 4 µM solution of acetoxymethyl ester form of the fluorescent calcium indicator fluo-3 (Molecular Probes, Eugene, Oregon) in 0.01 % pluronic. All assays were performed in a buffer containing 127 mM NaCl, 5 mM KCl, 2 mM MgCl2, 0.7 mM NaH2PO4, 2 mM CaCl2, 0.422 mg/ml NaHCO3, 2.4 mg/ml HEPES, 1.8 mg/ml glucose and 1 mg/ml BSA Fraction IV (pH 7.4). […] After each addition the fluorescence signal was sampled 50 times at 1 second intervals followed by 3 samples at 5 second intervals. Responses were measured as the peak height of the response within the sample period. […]
Sequence of native receptor, mGluR5d (P31424 21-1203): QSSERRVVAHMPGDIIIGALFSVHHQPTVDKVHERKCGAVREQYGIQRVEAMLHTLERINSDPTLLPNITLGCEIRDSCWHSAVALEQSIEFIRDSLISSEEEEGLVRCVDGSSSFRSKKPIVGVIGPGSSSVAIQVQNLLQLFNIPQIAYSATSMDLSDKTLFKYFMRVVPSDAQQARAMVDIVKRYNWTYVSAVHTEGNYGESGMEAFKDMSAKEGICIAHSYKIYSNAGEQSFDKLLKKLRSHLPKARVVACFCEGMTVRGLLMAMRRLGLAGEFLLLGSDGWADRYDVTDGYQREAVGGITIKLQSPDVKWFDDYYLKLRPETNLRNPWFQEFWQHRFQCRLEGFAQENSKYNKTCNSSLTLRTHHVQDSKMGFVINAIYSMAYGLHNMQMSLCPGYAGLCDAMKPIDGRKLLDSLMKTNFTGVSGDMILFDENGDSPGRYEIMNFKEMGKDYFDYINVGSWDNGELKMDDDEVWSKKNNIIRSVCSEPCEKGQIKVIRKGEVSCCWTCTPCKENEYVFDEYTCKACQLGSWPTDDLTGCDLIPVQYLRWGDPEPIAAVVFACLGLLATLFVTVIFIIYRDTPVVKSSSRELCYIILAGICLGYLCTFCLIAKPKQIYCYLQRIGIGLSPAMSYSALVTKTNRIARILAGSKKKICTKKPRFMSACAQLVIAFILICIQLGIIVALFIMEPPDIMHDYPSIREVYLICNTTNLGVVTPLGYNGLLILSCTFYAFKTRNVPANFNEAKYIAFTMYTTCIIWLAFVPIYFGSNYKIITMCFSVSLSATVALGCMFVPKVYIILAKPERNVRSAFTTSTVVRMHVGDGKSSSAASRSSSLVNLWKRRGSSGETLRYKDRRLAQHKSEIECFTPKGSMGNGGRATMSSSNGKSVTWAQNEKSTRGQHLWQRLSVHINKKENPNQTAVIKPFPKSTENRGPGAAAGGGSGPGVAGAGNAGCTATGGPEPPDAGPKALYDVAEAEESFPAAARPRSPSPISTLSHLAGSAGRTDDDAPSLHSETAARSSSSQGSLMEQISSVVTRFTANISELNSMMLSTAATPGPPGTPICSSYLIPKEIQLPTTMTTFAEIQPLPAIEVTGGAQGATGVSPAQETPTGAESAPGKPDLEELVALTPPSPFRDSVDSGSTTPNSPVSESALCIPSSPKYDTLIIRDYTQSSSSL

By IC50 is commonly meant the concentration needed to halve the response being measured. Low readings indicate inhibition by little substance, high ones a need for much substance. `N#Cc1cccc(-c2nc(-c3ccccn3)no2)c1` [B21, 3-(2-pyridyl)-5-(3-cyanophenyl)-1,2,4-oxadiazole]: 121 nM corresponded to half-maximal inhibition (IC50). The value for `N#Cc1cccc(-c2nc(-c3ccccn3)co2)c1` [B52, 2-[3-cyanophenyl]-4-[pyridin-2-yl]-1,3-oxazole] was 74 nM.
